Measurements taken from paper PMC10541411 (Nature Communications, 2023).
Ends that are not written are not given here. Me2 = dimethyl-lysine

Tests used:
[1] = target: 53BP1^TT-CC (tandem Tudor domain of 53BP1, residues 1481-1603, E1549C/E1567C), disulfide-crosslinked homodimer (UniProt Q12888); assay: AUC; sedimentation velocity of 53BP1^TT-CC (20 uM) without DTT; 20 °C, 20 mM sodium phosphate pH 7.5, 50 mM NaCl
53BP1^TT homodimer = target: T1, 53BP1^TT homodimer (Homo sapiens, UniProt Q12888); assay: 2D longitudinal 1H-15N-heteronuclear ZZ-exchange NMR spectroscopy, protomer interconversion; format: binding; details: 25 °C, 1 mM 15N-labeled 53BP1TT and 9 mM UNC2170, signals of E1524
T1 construct: The tandem Tudor domain of 53BP1 (53BP1^TT, residues 1481–1603) was purified as previously described; made in house; host or cells: E. coli (only for the SAXS sample)
T1 sequence (Q12888 1481-1603): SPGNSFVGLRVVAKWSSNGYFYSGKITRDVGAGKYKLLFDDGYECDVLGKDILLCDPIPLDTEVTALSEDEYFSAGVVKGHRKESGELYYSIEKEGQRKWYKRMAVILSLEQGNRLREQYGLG
Procedure: (§1) All NMR data were collected at 25 °C on a 700 MHz Bruker Avance III spectrometer equipped with a cryoprobe. Data were processed and analyzed with NMRPipe[54] and NMRViewJ[55],[56].
The protomer interconversion rates in the 53BP1^TT-UNC2970 complex were determined using 2D longitudinal ^1H-^15N-heteronuclear ZZ-exchange NMR spectroscopy[22]–[24]. For these experiments, a series of 11 spectra were acquired with mixing times of 0, 100, 200, 300, 400, 500, 600, 700, 800, 900, and 1000 ms in 25 mM sodium phosphate, pH 7.0, 100 mM NaCl, 1.5 mM NaN3, 0.3 mM DSS, 90% H2O/10% D2O. The interconversion rates were obtained from nonlinear fitting of auto peak and exchange peak intensities accounting for two-site exchange and ^15N R1 relaxation using the equations previously described for a two-state model.

[2] = target: T2, 53BP1^TT-PN (E1549P/D1550N) (Homo sapiens, UniProt Q12888, D1550N/E1549P); assay: 1H-15N HSQC NMR titration of 15N-labeled 53BP1TT-PN; format: binding; details: up to fourfold molar excess
T2 construct: The tandem Tudor domain of 53BP1 (53BP1^TT, residues 1481–1603) was purified as previously described; made in house
T2 sequence (Q12888 1481-1603 E1549P/D1550N): as the sequence (Q12888 1481-1603) above, with E69P, D70N counted along it
Procedure: as §1
(§2) To probe chemical shift perturbations, ^1H-^15N HSQC spectra were acquired on the following samples: 0.2 mM ^15N-labeled 53BP1^TT WT and 53BP1^TT-PN in 25 mM sodium phosphate, pH 7.0, 1.5 mM NaN3, 0.3 mM DSS, 90% H2O/10% D2O, free and incrementally titrated with various non-labeled inhibitors (UNC1078, UNC1118, UNC2170, UNC2991, UNC3474), as well as with H4KC20me2 and p53K382me2 peptides. Chemical shift perturbations (Δδ) were calculated using the Eq. (1):1 Δδ=(ΔN/5)^2+ΔH^2 where ΔN and ΔH are the corresponding differences in ^15N and ^1H chemical shifts between the bound and free forms of 53BP1.

53BP1^TT = target: T3, 53BP1^TT (Homo sapiens, UniProt Q12888); design: method as in PMID 25590533; details: previously identified; read-out: dissociation constant (Kd); cited from earlier work
T3 construct: The tandem Tudor domain of 53BP1 (53BP1^TT, residues 1481–1603) was purified as previously described; made in house; host or cells: E. coli (only for the SAXS sample)
T3 sequence (Q12888 1481-1603): as the sequence (Q12888 1481-1603) above

53BP1^TT WT = 53BP1^TT WT (Homo sapiens, UniProt Q12888); assay: 1H-15N HSQC NMR titration of 15N-labeled wild-type 53BP1TT; format: binding; design: The tandem Tudor domain of 53BP1 (53BP1^TT, residues 1481–1603) was purified as previously described; made in house; host or cells: E. coli (only for the SAXS sample); details: 15N-labeled WT 53BP1TT
Chain of 53BP1^TT WT (Q12888 1481-1603): as above
Procedure: as §1, §2

[3] = target: T4, 53BP1^TT (tandem Tudor domain of 53BP1, residues 1481–1603) (Homo sapiens, UniProt Q12888); assay: Isothermal titration calorimetry (ITC) of small molecules with 53BP1TT; format: binding; details: 25 °C, 50 mM Tris-HCl pH 7.5, 50 mM NaCl, one-site model; read-out: Kd (apparent, ITC)
T4 construct: The tandem Tudor domain of 53BP1 (53BP1^TT, residues 1481–1603) was purified as previously described; made in house; host or cells: E. coli (only for the SAXS sample)
T4 sequence (Q12888 1481-1603): as above
Procedure: The ITC measurements were performed at 25 °C using a MicroCal iTC200 calorimeter. 53BP1^TT and the small molecules (UNC2991, UNC3351, UNC3474) were in 50 mM Tris-HCl, pH 7.5, 50 mM NaCl. In a typical run, 53BP1^TT was in the reaction cell at a concentration of 150 to 160 μM while the small molecule, in the titration syringe at a concentration of 0.8–2 mM, was delivered as 2 μL injections every 3 min. The titrations were paired with control experiments for heat of dilution. The titration of 53BP1^TT with UNC1118 was performed using a MicroCal VP-ITC calorimeter. ITC data were fitted to a one-site model using a Levenberg-Marquardt non-linear regression algorithm programmed in the Origin 7.0 software.
Supplementary Figure 1 | Interaction of 53BP1TT with small molecules probed using isothermal titration calorimetry (ITC) and small-angle X-ray scattering (SAXS). a, ITC of the interaction of UNC2991, UNC3351 and UNC3474 with 53BP1TT. Raw titration data and integrated heat measurements are shown. Indicated apparent Kds with associated standard deviations were determined by nonlinear least-squares analysis.
1.33 and 2 mg/mL with an exposure time of 0.5 s, without and with 10-fold molar excess of UNC1118 or UNC3474. The error bars in the scattering curves were generated using PRIMUS in the data analysis software ATSAS 2.4.2 and represent mean ± standard deviation calculated from signal intensity scaling and merging for the three different 53BP1TT concentrations. The Guinier plots, dimensionless Kratky plots and pair distance distribution functions derived from the SAXS data are shown. Also shown are the crystal structures of 53BP1TT and 53BP1TT-UNC3474 overlaid to the corresponding SAXS-based ab initio molecular envelopes generated using GASBOR 2.3i. c, Interaction of UNC1118 with 53BP1TT characterized using ITC (left) and NMR spectroscopy (right).
For the ITC, raw titration data and integrated heat measurements are shown. The indicated Kd with associated standard deviation was determined by nonlinear least-squares analysis.
(1 picture or pasted object on this page, not shown here)

Compound | interaction with 53BP1TT-PN (1H-15N HSQC titration) [2] | changes in signal positions in the 1H-15N HSQC spectrum of 53BP1TT upon titration (53BP1^TT WT) | Kd [3] | other results
53BP1^TT-CC (tandem Tudor domain of 53BP1, residues 1481-1603, E1549C/E1567C), disulfide-crosslinked homodimer (from UniProt Q12888 1481-1603) (domain or fragment) |  |  |  | stoichiometry N [1]: 2
CC(C)(C)NCCCNC(=O)c1cccc(Br)c1 [UNC2170] | did not interact | slow exchange on the chemical shift time scale |  | interconversion rate kAB between the two protomers in the 53BP1TT dimer (53BP1^TT homodimer): 1.7 s⁻¹; interconversion rate kBA between the two protomers in the 53BP1TT dimer (53BP1^TT homodimer): 1.2 s⁻¹; Kd (53BP1^TT): 22 ± 2.5 µM
CC(C)(C)NCCCNC(=O)c1cccc(I)c1 [UNC2991] | did not interact | slow exchange on the chemical shift time scale | 3.9 ± 0.4 µM | 
CC(C)(C)NCCCNC(=O)c1cccc(C(F)(F)F)c1 [UNC3351] |  | slow exchange on the chemical shift time scale | 6.8 ± 0.4 µM | 
H4KC20me2: dimethylated histone H4 peptide (residues 12–25) with chemically installed dimethyl-lysine analog (KGGAKRHRCVLRDN; dimethyl-lysine analog at position 20 (KC20me2), installed chemically) [reference compound] | bound |  |  | 
p53K382me2: dimethylated p53 peptide (residues 377–386) purchased from GenScript (TSRHKK(Me2)LMFK) [reference compound] | bound |  |  | 
